Here are results for two molecules from patent US6448034B1, “Production of variant nisin” (priority 1994, dated 2002).

Assay [1] has as its system Lactobacillus helveticus CH-1. Nature of the assay: Plate diffusion bioassay of cell-free extracts / culture supernatants. It is filed as cell-based. How it is done: 150 μl samples of cell free extracts from strains: 4, FI5876; 5, FI7990; 6, FI8070; 7, FI8198; 8, FI8199 were loaded into wells bored in MRS agar seeded with the indicator strains Lactobacillus helveticus CH-1. Plates were incubated overnight at 42° C. Standards included on the assay plate are: 1,50; 2,100; 3,200; 9,300; 10,400 U/ml.
(§1) Nisin activity in Lactococcal strains was assayed by both deferred and direct means. Plate diffusion bioassays were performed as previously described (Dodd et al (1992) Appl. Environ. Microbiol. 58, 3683-3693. Colonies growing on the surface of a GM17 plate were directly assayed by inverting over chloroform for 12 minutes and overlaying with agar seeded with the nisin sensitive L. lactis strain MG1614. Plates were incubated overnight and zone sizes around colonies compared with those of controls. Nisin immunity was determined by streaking cultures on a series of GM17 agar plates containing an increasing concentration of nisin and assessing the degree of growth at the different nisin levels. Control cultures (FI5876, positive) and MG1614 (negative) were included on each plate.
This corresponds to an increase of approximately 50% of nisin A levels, under the conditions used here (Table 1). This higher level of production was not found in the extracts of FI8199, producing the double mutant nisin A/Dha5A,Dha33A. […] In all cases the yield for a particular nisin variant was higher when using this gene replacement strategy than when the equivalent plasmid-encoded gene was employed in a plasmid complementation system (Table 3, Dodd et al (1992) (1993) supra).

Assay [2] relates to sensitive L. Lactis strain MG1614. The experiment in a line: Minimum inhibitory concentration (MIC). The assay is classed as cell-based. The following applies: Table 5.
Assay [3] relates to FI7847 [nisA-(fs)]. Nature of the assay: Induction by nisin / nisin variants as inducing agent. It is filed as cell-based, L. lactis. The conditions noted are these: strain FI7847. Further details: Induction: unit not given here. How it is done:
A particularly preferred embodiment of the third aspect of the invention is wherein the cells are cultured in the presence of nisA nisin or a variant nisin which can induce nisin expression. […] By adding sub-inhibitory concentrations of nisin to the growth medium, during fermentation, higher levels of the variant nisin are produced. Any variants that are less efficient as inducing agents benefit from the inclusion of nisin in the growth medium (ie a nisin induction step in the purification procedure). The amount of induction varies depending on the initial induction capacity of any particular variant (with I30W nisin A production more than doubled as a result of induction). Induction may be routinely included in the method as a means of maximising production levels. Any concerns about contamination with the wild type molecule are minimal as the nisin concentration required for induction is negligible compared to the amount of nisin variant being purified. Conveniently, the nisA nisin is a minimum amount that provides maximal induction of nisin production. This amount can be determined empirically by a person skilled in the art. Suitable nisA nisin concentrations for induction in this embodiment are from 1 nM to 500 nM, preferably 10 nM to 250 nM, more preferably 50 nM to 150 nM, most preferably 100 nM.
In some circumstances it is desirable to add nisA nisin as an inducer.

Assay [4] relates to Lactobacillus helveticus CH-1. The following applies: plate diffusion bioassay; plasmid-encoded nisA gene complementing nisA deficiency in host strain FI7332; cited from earlier work.
In assay [5] the test system is nisin sensitive L. lactis strain MG1614. The conditions noted are these: colony overlay assay; plasmid complementation; cited from earlier work.
For assay [6], the system named is sensitive indicator strains. The following applies: work described in WO 93/20213; cited from earlier work.
For a further assay, the system named is FI5876. Nature of the assay: Nisin immunity on GM17 agar plates with increasing nisin. The assay is classed as cell-based, L. lactis. How it is done: as §1
(§2) The effect of disruption of the nisA gene on immunity of the host strain to nisin has been described previously (Dodd et al (1992) supra). […] The nisA deleted strain FI7990 was sensitive to nisin at a concentration of between 250 and 500 U/ml compared to the parent strain, FI5876, which will continue growing in the presence of nisin to over 1000 U/ml.

In assay [7] the test system is FI7847 [nisA-(fs)]. The assay is described as above. The following applies: nisin level tolerated by strain FI7847 nisA-(fs). It is filed as cell-based, L. lactis. How it is done: as §1, §2
Another assay concerns FI7990 (ΔnisA). The description is as above. It is filed as cell-based, L. lactis. The following applies: nisin level tolerated by strain FI7990 ΔnisA. As for the experimental part: as §1, §2
For the next assay, the system named is FI7893 (nisA). Described as above. It is filed as cell-based, L. lactis. The conditions noted are these: nisin level tolerated by strain FI7893 nisA. How it is done:
as §1

The subject of another assay is FI8070 (nisA/S5A). The assay is described as above. It is filed as cell-based, L. lactis. The conditions noted are these: nisin level tolerated by strain FI8070 nisA/S5A. As for the experimental part: as §1
The subject of a further assay is FI8198 (nisA/S33A). The description is as above. The following applies: nisin level tolerated by strain FI8198 nisA/S33A. The assay is classed as cell-based, L. lactis. How it is done:
as §1

Another assay concerns FI8199 (nisA/S5A,S33A). Described as above. The assay is classed as cell-based, L. lactis. The conditions noted are these: nisin level tolerated by strain FI8199 nisA/S5A. As for the experimental part: as §1
A further assay concerns MG1614. The description is as above. The following applies: nisin level tolerated by strain MG1614. It is filed as cell-based, L. lactis. As for the experimental part: as §1
Another assay deals with FI8003 (nisA). Described as above. The assay is classed as cell-based, L. lactis. The following applies: nisin level tolerated by strain FI8003 nisA (BamHI site in promoter). How it is done:
as §1
A possible explanation for the difference in nisin sensitivity of these two Nis^− strains came from gene replacement studies involving the vector pFI740 (FIG. 2d). […] The only difference between the two sequences involved is that pFI740 has an additional BamHI site incorporated 80 bp upstream of the ATG start codon of nisA, and a BglII site immediately downstream of the coding region (FIG. 4). […] A single base pair change introduced as a result of engineering the BamHI site has the effect of converting the -35 sequence from CTGATT to CCGATT (FIG. 4).

In brackets after ≈: the same amount, converted by molar mass. Marks after values point to notes of the source that are not given here. A value given as a limit tells only on which side of the number the result lay.

A word on the MIC: it is the lowest concentration found to suppress growth. As for `C/C=C(\NC(=O)[C@@H](N)[C@@H](C)CC)C(=O)N[C@@H]1CSC[C@@H](C(=O)N[C@H]2C(=O)N3CCC[C@H]3C(=O)NCC(=O)N[C@H](C(=O)N[C@@H](CCCCN)C(=O)N[C@H]3C(=O)NCC(=O)N[C@@H](C)C(=O)N[C@@H](CC(C)C)C(=O)N[C@@H](CCSC)C(=O)NCC(=O)N[C@H](C(=O)N[C@@H](CC(N)=O)C(=O)N[C@@H](CCSC)C(=O)N[C@@H](CCCCN)C(=O)N[C@H]4C(=O)N[C@@H](C)C(=O)N[C@H]5C(=O)N[C@@H](CS[C@H]4C)C(=O)N[C@@H](Cc4c[nH]cn4)C(=O)N[C@H](C(=O)N[C@@H](CO)C(=O)N[C@H](C(=O)N[C@@H](Cc4c[nH]cn4)C(=O)N[C@H](C(=O)N[C@@H](C)C(=O)N[C@@H](CCCCN)C(=O)O)C(C)C)[C@@H](C)CC)CS[C@H]5C)CS[C@H]3C)CS[C@H]2C)NC(=O)[C@H](CC(C)C)NC(=O)[C@H](C)NC(=O)[C@H]([C@@H](C)CC)NC1=O` [nisin A (Dha5A, Dha33A)], the “Activity (% of wt)” value in [1] (antimicrobial activity in culture supernatants of gene-replaced strains, plate diffusion bioassays) is reported as 100 % of wt. Moreover, the “zone of inhibition / inhibitory effect compared with parent strain FI5876” value in assay [1] (cell extracts of gene-replaced strains, plate diffusion bioassay) is “equivalent that of nisin A containing the single mutation and also the wild type molecule”. The “nisin activity (% of wild type), gene replacement” value in assay [1] (plate diffusion bioassay, functional nisA gene incorporated in the chromosome of FI7990 in place of nisA deletion) is given as 100 % of wild type. For the same molecule, the MIC in assay [2] amounted to 1000 µg/mL (≈ 298 µM). Moreover, the Induction with FI7847 [nisA-(fs)] [3] (inducing agent at 100 ng ml^−1) is given as 34; in the assay on FI7847 [nisA-(fs)] [3] (inducing agent at 1 mg ml^−1), 106. In addition, the “nisin activity (% of wild type), complementation” value in assay [4] is <1^d % of wild type. In assay [5], the “antimicrobial activity, plasmid-encoded gene complementing nisA deficiency” value is recorded as “only detected in the more sensitive colony overlay assay”. For the same molecule, the “antimicrobial activity against sensitive indicator strains” value in [6] was “retained their antimicrobial activity”.

nisin: the Immunity was more than 1 U/ml × 10^3 in the assay with FI5876 (nisin level tolerated by strain FI5876 (wild type)); 0.5-0.75 U/ml × 10^3 with FI7847 [nisA-(fs)] [7]; 0.25-0.5 U/ml × 10^3 with FI7990 (ΔnisA); more than 1 U/ml × 10^3 in the assay on FI7893 (nisA); more than 1 U/ml × 10^3 in the assay on FI8070 (nisA/S5A); more than 1 U/ml × 10^3 with FI8198 (nisA/S33A). For the same molecule, the results for the Immunity in the assay with FI8199 (nisA/S5A,S33A), with MG1614 and with FI8003 (nisA) were more than 1 U/ml × 10^3, 0.01 U/ml × 10^3 and 0.25-0.5 U/ml × 10^3, respectively. For the same molecule, the “nisin concentration at which the strain continues growing” value in the assay with FI5876 (parent strain FI5876) is recorded as “over 1000 U/ml”.
